ChEMBL document CHEMBL2203023, “Synopsis of some recent tactical application of bioisosteres in drug design” (J Med Chem, 2011)

Experiments:
[1] = biological target: T1, Dolichol-phosphate-mannose synthase (Trypanosoma brucei brucei) (UniProt Q5QQ41); conditions: 1 mM
T1 sequence (whole entry): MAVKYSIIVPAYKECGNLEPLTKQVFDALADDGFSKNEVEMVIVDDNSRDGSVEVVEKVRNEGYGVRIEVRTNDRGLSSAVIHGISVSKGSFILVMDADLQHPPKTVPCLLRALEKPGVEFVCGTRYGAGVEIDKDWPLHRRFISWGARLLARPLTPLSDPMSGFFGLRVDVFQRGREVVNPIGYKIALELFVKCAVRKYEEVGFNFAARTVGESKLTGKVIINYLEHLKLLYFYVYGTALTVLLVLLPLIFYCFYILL

Chain of 4-aminobutyrate aminotransferase, mitochondrial (Homo sapiens), P80404 (P80404 whole entry): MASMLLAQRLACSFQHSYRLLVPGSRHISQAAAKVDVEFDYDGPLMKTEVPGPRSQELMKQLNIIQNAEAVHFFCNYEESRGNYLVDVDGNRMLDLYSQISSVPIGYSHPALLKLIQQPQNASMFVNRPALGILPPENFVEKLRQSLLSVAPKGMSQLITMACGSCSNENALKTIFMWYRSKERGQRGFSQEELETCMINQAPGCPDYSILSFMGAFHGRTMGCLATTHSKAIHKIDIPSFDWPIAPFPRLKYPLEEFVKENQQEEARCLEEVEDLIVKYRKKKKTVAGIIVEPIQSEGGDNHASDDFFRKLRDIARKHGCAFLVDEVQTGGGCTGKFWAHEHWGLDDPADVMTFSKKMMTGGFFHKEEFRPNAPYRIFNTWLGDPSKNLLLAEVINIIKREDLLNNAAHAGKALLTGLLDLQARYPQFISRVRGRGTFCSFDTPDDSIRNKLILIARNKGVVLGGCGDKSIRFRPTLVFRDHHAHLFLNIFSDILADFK

Row | Compound | inhibition [1] [%] | Km (NCCCC(=O)O) [µM]
1 | Nc1nc2c(ncn2[C@@H]2O[C@H](COP(=O)(O)OP(=O)(O)O)[C@@H](O)[C@H]2O)c(=O)[nH]1 | 8.5 | 
2 | 4-aminobutyrate aminotransferase, mitochondrial (Homo sapiens), P80404 |  | 2500
3 | Nc1nc2c(ncn2[C@@H]2O[C@H](CNc3c(NCc4ccccc4C(=O)O)c(=O)c3=O)[C@@H](O)[C@H]2O)c(=O)[nH]1 | 64 | 
